Measured values: patent US8759031B2, “Type I polyketide synthase extender units” (priority 2007, dated 2014)
Like-named read-outs stand apart in the source and are kept apart here.

Tests used:
ZmaJ [1] = target: T1, ZmaJ (Bacillus cereus, UniProt Q7BQ71)
Experimental: ATP-PPi exchange assays were performed as previously described (Thomas et al., 2002, Chem. Biol. 9: 171-184). Reactions for amino acid specificity contained 70 nM ZmaJ and 1 mM of the following amino acids: L-Ser, L-2,3-diaminopropionate, L-Thr, Gly, and L-Cys. To determine the kinetic parameters of ZmaJ activation of L-Ser, 100 μL reactions containing 70 nM ZmaJ, 3.5 mM ATP, and varying concentrations of L-Ser (0.35 to 10 mM), in triplicate, were incubated for 10 min prior to stopping the reactions.

N[C@@H](CO)C(=O)O = experiment: purified protein, by the assay type; conditions: other: 70 nM ZmaJ, 3.5 mM ATP, L-Ser 0.35 to 10 mM, 10 min, triplicate
Experimental: ZmaJ used in these assays was purified by an additional anion exchange chromatography step, which had no effect on seryl-ZmaH formation. […] Reactions for amino acid specificity contained 70 nM ZmaJ and 1 mM of the following amino acids: L-Ser, L-2,3-diaminopropionate, L-Thr, Gly, and L-Cys. To determine the kinetic parameters of ZmaJ activation of L-Ser, 100 μL reactions containing 70 nM ZmaJ, 3.5 mM ATP, and varying concentrations of L-Ser (0.35 to 10 mM), in triplicate, were incubated for 10 min prior to stopping the reactions. The reactions were in the linear range for enzyme concentration and less than 10% substrate-to-product conversion.

ZmaN = experiment: Formation of glyceryl-ZmaD (ZmaN-catalyzed modification of holo-ACP, HPLC analysis); format: biochemical, Bacillus cereus; conditions: 50 μM 3-PG, ATP
Experimental: Control reactions were run without ZmaN, ATP, or with 2 U of 3-PGPK (Sigma). A time course comparing reactions with and without 3-PGPK contained 50 μM 3-PG, and the reactions were run for 0.5, 2.0, 5.0, and 10 min.
Reactions containing glyceraldehyde-3-phosphate (150 μl final volume) contained: 12.5 μM holo-ZmaD, 75 mM Tris pH 7.5, 10 mM MgCl2, 1 mM TCEP, 100 mM NaCl, 500 μM CoA, 1 μM Sfp, 250 μM DL-glyceraldehyde-3-phosphate (Sigma), 1 U GAPDH (Sigma), and 1 μM ZmaN were run for 40 min at 22° C. Control reactions without GAPDH, DL-glyceraldehyde-3-phosphate, Sfp, or ZmaN were run, as well as control reactions in which holo-ZmaH replaced holo-ZmaD.

ZmaJ [2] = target: T1, ZmaJ; conditions: 10 μM holo-ZmaD replaced holo-ZmaH; L-serine, ATP
Experimental: Reaction mixtures (130 or 260 μl) contained: 10 μM holo-ZmaH, 58 mM Tris pH 7.5, 8 mM MgCl2, 0.8 mM TCEP, 385 μM CoA, 0.8 μM Sfp, 250 μM L-serine, 5 mM ATP, and 1 μM ZmaJ. The reaction mixtures were incubated at 22° C. for 1 hour. To test whether seryl-ZmaD could be formed, 10 μM holo-ZmaD replaced the 10 μM holo-ZmaH in a 130 μL reaction mixture.
In this experiment, 100-200 μl of apo- or holo-ZmaH or 130-200 μl of aminoacylated ZmaH reaction products was injected, and products were separated using the same method as above.

T1 sequence (Q7BQ71 whole entry): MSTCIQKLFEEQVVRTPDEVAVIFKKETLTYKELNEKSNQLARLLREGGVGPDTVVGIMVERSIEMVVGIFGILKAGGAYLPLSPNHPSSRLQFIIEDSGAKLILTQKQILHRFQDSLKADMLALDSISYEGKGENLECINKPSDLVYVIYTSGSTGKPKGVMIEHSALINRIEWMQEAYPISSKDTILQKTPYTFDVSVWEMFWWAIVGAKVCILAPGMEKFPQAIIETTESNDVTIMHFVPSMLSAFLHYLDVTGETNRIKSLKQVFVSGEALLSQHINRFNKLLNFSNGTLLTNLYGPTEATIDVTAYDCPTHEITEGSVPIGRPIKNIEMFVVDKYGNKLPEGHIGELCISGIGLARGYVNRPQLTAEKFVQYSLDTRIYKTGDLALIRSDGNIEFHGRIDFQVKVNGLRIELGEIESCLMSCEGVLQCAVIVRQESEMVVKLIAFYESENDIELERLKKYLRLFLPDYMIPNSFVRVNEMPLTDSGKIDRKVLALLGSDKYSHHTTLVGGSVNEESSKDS
Sequence of ZmaN (as listed by the source, one chain of several): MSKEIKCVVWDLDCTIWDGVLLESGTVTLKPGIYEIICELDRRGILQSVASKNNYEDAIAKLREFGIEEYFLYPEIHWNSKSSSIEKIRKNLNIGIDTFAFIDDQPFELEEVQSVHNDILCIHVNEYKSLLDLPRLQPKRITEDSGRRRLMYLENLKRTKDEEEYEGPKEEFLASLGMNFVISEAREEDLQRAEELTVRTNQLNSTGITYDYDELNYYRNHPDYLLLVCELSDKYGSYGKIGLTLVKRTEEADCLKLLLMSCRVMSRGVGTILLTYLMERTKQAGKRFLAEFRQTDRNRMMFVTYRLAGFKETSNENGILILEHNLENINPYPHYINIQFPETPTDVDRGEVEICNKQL

Molecule: NCC(=O)O [Gly]
- amino acid substrate specificity of ZmaJ (activation) (ZmaJ [1]): activated only L-Ser

Molecule: N[C@@H](CS)C(=O)O [L-Cys]
- amino acid substrate specificity of ZmaJ (activation) (ZmaJ [1]; 70 nM ZmaJ, 1 mM amino acid): activated only L-Ser

Molecule: N[C@@H](CO)C(=O)O [L-Ser, L-serine]
- amino acid substrate specificity of ZmaJ (activation) (ZmaJ [1]; 70 nM ZmaJ, 1 mM amino acid): activated only L-Ser

Molecule: C[C@@H](O)[C@H](N)C(=O)O [L-Thr]
- amino acid substrate specificity of ZmaJ (activation) (ZmaJ [1]; 70 nM ZmaJ, 1 mM amino acid): activated only L-Ser

Molecule: L-2,3-diaminopropionate
- amino acid substrate specificity of ZmaJ (activation) (ZmaJ [1]; 70 nM ZmaJ, 1 mM amino acid): activated only L-Ser

Molecule: ZmaJ (Bacillus cereus)
- Km (N[C@@H](CO)C(=O)O): 1800 ± 200 µM
- kcat (N[C@@H](CO)C(=O)O): 0.7 ± 0.033 s⁻¹

B1: holo-ZmaD: acyl carrier protein ZmaD (SEQ ID NO:2) phosphopantetheinylated in vitro by Sfp (protein, listed as Bacillus cereus)
chain: MDNHEKIRQYIKKNLIIFNAEETIVANDENIFEKGYVNSLFAMQMLNFIETEFDIVVDNDELDIINFSTINNMVDLINKKKNGNFTV
modifications: phosphopantetheinylated
- rate of holo-ZmaD modification (ZmaN; with 3-PGPK): 1.44 nmol/min
- rate of holo-ZmaD modification (ZmaN; without 3-PGPK): 0.08 nmol/min
- aminoacylation by ZmaJ (seryl-ACP formation) (ZmaJ [2]): not able to aminoacylate
